“Also recorded” adds a separate entry of the source.
Experiments:
IL-6 = assay: Bovine whole blood assay, IL-6; format: cell-based; details: Bos taurus, fresh whole bovine blood, LPS 1 μg/mL
Procedure: (protected from light) for 30 minutes.

P. multocida 46572 = assay: In vivo mouse lung infection challenge model (murine efficacy); details: mouse, in vivo
Procedure: The challenge organism was P. multocida 46572. Target challenge concentration was 5×10^2 CFU/mouse. Isolated colonies from overnight growth (37° C. with 5% CO2) on trypticase soy agar (TSA II) blood plates were transferred to room temperature Brain Heart Infusion Broth (BHIB). The broth culture was incubated 3.5-4 hours to approximately mid-log phase of growth, as measured by forward light scatter at 600 nm (OD600, 0.200). The culture was centrifuged to collect the bacterial pellet. The pellet was re-suspended in BHIB and adjusted to provide an approximate concentration of 2.7 log^10 colony forming units (CFU) in 0.04 mL at the highest concentration. The challenge inoculum concentration was confirmed by serial dilutions of the inoculum for CFU enumeration. On Day −5, CD-1 female mice were received. Mice were given standard rodent diet and water ad libitum. On Day 0, bacterial inoculum (0.04 mL) was administered to each mouse (n=36) intranasally. Compounds of the invention were dosed at 20 mg/kg (0.1 mL) in a buffered (˜pH 5.4) propylene glycol, monothioglycerol and water solution by subcutaneous injection. Animals were observed from Days 1-10. The study was terminated on Day 10. In addition, some treatment groups were sampled at 6, 24, and 48 hours post bacterial challenge for RNA sequence analysis of lung tissue.
The murine efficacy model (P. multocida challenge) was optimized, and the treatment group size was powered to be able to observe statistically significant improvement of survival to expected ranges for immunomodulatory compounds. The experimental design was a randomized complete block design. Mice were individually identified and treatment groups comingled within a cage, with every treatment group equally represented across cages. Mortality was the primary variable. Mortality data was analyzed using a generalized mixed model with fixed effect of treatment and random effect of block. Survival time was also analyzed using the SAS PHREG (survival analysis) procedure to examine whether there were significant differences between treatment groups and the control group. Numerous compounds of the invention and M9 (positive control) were tested in this model at a dose of 20 mg/kg (Table 3). Typical percent survival for no treatment control is in the range of 0-20% based on study to study variation in challenge inoculum and rate of infection. […] Mouse survival for M9 was about 90-100%, further supporting its residual antibacterial properties against the bacterial strain. Harmonized survival accounts for % survival relative to vehicle (“−” control) and M9 (“+” control)) survival data (Table 3).

[1] = system: M. haemolytica (strain: OSU-012103-BHI); assay: Bovine M. haemolytica intratracheal lung challenge model

Q: What does the source list for CCCNC[C@]1(O)[C@H](C)O[C@@H](O[C@H]2[C@H](C)[C@@H](O[C@@H]3O[C@H](C)C[C@H](NC)[C@H]3O)[C@](C)(O)C[C@@H](C)CN[C@H](C)[C@@H](O)[C@](C)(O)[C@@H](CC)OC(=O)[C@@H]2C)C[C@@]1(C)OC [Example M9, (2R,3S,4R,5R,8R,10R,11R,12S,13S,14R)-2-ethyl-3,4,10-trihydroxy-13-(((2R,4R,5S,6S)-5-hydroxy-4-methoxy-4,6-dimethyl-5-((propylamino)methyl)-tetrahydro-2H-pyran-2-yl)oxy)-11-(((2S,3R,4S,6R)-3-hydroxy-6-methyl-4-(methylamino)tetrahydro-2H-pyran-2-yl)oxy)-3,5,8,10,12,14-hexamethyl-1-oxa-6-azacyclopentadecan-15-one]?
A: IC50 (IL-6): > 250 µM; clinical efficacy in P. multocida infection in mice (P. multocida 46572): clinically efficacious; Mortality ([1]; T02: 10 mg/kg subcutaneous Day −1, M. haemolytica challenge Day 0): 1/6; Mortality ([1]; T04: 10 mg/kg subcutaneous Day −1, no challenge): 0/6; IL-6 levels ([1]; bovine M. haemolytica challenge): significantly reduced; CD163 expression ([1]; cattle, monocytes/macrophages in whole blood): suppressed; also recorded: mitigates the pathologic increase
